Measured values from ChEMBL document CHEMBL1141026, “Synthesis, in vitro antitrypanosomal and antibacterial activity of phenoxy, phenylthio or benzyloxy substituted quinolones” (Bioorg Med Chem Lett, 2009).
In brackets after ≈: the same amount, converted by molar mass.

How the values were obtained:
Trypanosoma cruzi [1] = experiment: Antitrypanosomal activity against trypomastigotes of Trypanosoma cruzi Tulahuen C2C4 containing lacZ gene in rat L6 cells after 4 days; type: functional, organism-based; settings: L6, 96 h
Shigella sonnei = experiment: Antibacterial activity against Shigella sonnei after 24 hrs by agar dilution method; type: functional
[2] = system: Staphylococcus epidermidis; experiment: Antibacterial activity against Staphylococcus epidermidis after 24 hrs by agar dilution method; type: functional
Proteus mirabilis = experiment: Antibacterial activity against Proteus mirabilis after 24 hrs by agar dilution method; type: functional
Klebsiella pneumoniae = experiment: Antibacterial activity against Klebsiella pneumoniae after 24 hrs by agar dilution method; type: functional
Escherichia coli = experiment: Antibacterial activity against Escherichia coli after 24 hrs by agar dilution method; type: functional
Proteus vulgaris = experiment: Antibacterial activity against Proteus vulgaris after 24 hrs by agar dilution method; type: functional
Aeromonas hydrophila = experiment: Antibacterial activity against Aeromonas hydrophila after 24 hrs by agar dilution method; type: functional
Streptococcus = experiment: Antibacterial activity against gamma-streptococcus after 24 hrs by agar dilution method; type: functional
Staphylococcus aureus = experiment: Antibacterial activity against Staphylococcus aureus after 24 hrs by agar dilution method; type: functional
Shigella boydii = experiment: Antibacterial activity against Shigella boydii after 24 hrs by agar dilution method; type: functional
[3] = system: Salmonella enterica subsp. enterica; experiment: Antibacterial activity against Salmonella enteritidis after 24 hrs by agar dilution method; type: functional, Salmonella enterica subsp. enterica serovar Enteritidis
Morganella morganii = experiment: Antibacterial activity against Morganella morganii after 24 hrs by agar dilution method; type: functional
Shigella flexneri = experiment: Antibacterial activity against Shigella flexneri after 24 hrs by agar dilution method; type: functional
Pseudomonas aeruginosa = experiment: Antibacterial activity against Pseudomonas aeruginosa after 24 hrs by agar dilution method; type: functional
Streptococcus pneumoniae = experiment: Antibacterial activity against Streptococcus pneumoniae after 24 hrs by agar dilution method; type: functional
Salmonella typhimurium = experiment: Antibacterial activity against Salmonella Typhimurium after 24 hrs by agar dilution method; type: functional, Salmonella enterica subsp. enterica serovar Typhimurium; settings: Salmonella enterica
Serratia marcescens = experiment: Antibacterial activity against Serratia marcescens after 24 hrs by agar dilution method; type: functional
Citrobacter freundii = experiment: Antibacterial activity against Citrobacter freundii after 24 hrs by agar dilution method; type: functional
Enterococcus faecalis = experiment: Antibacterial activity against Enterococcus faecalis after 24 hrs by agar dilution method; type: functional
Staphylococcus = experiment: Antibacterial activity against Staphylococcus albus after 24 hrs by agar dilution method; type: functional
Trypanosoma cruzi [4] = experiment: Antitrypanosomal activity against Trypanosoma cruzi amastigotes at 250 uM
Trypanosoma cruzi [5] = experiment: Antitrypanosomal activity against Trypanosoma cruzi DM28 epimastigotes at 200 ug/ml after 96 hrs; type: functional

In the case of `CCn1cc(C(=O)O)c(=O)c2cc(F)c(Oc3ccc(C)cc3)c(Oc3ccc(C)cc3)c21`, the IC50 (Trypanosoma cruzi [1]) is reported as 19.4 µg/mL (≈ 43.4 µM).

With `CCn1cc(C(=O)O)c(=O)c2cc(F)c(Oc3ccc(Cl)cc3Cl)c(Oc3ccc(Cl)cc3Cl)c21` the IC50 (Trypanosoma cruzi [1]) was 12.7 µg/mL (≈ 22.8 µM).

With `CCn1cc(C(=O)O)c(=O)c2cc(F)c(Sc3ccc(F)cc3)c(Sc3ccc(F)cc3)c21` the IC50 (Trypanosoma cruzi [1]) was 6.2 µg/mL (≈ 12.7 µM).

Compound `CCn1cc(C(=O)O)c(=O)c2cc(F)c(Sc3ccccc3)c(Sc3ccccc3)c21` has an IC50 (Trypanosoma cruzi [1]) of 19.3 µg/mL (≈ 42.7 µM).

`CCn1cc(C(=O)O)c(=O)c2cc(F)c(Oc3ccc(C)cc3)c(F)c21` was tested, and the MIC (Shigella sonnei) was 12.5 µg/mL (≈ 34.8 µM), the IC50 (Trypanosoma cruzi [1]) was 18.3 µg/mL (≈ 50.9 µM) and the MIC [2] was 6.25 µg/mL (≈ 17.4 µM). It also gave an MIC (Proteus mirabilis) of 25 µg/mL (≈ 69.6 µM), an MIC (Klebsiella pneumoniae) of 6.25 µg/mL (≈ 17.4 µM) and an MIC (Escherichia coli) of 25 µg/mL (≈ 69.6 µM). For the same compound, the MIC (Proteus vulgaris) was over 25 µg/mL, the MIC (Aeromonas hydrophila) was 25 µg/mL (≈ 69.6 µM) and the MIC (Streptococcus) was over 25 µg/mL. It also gave an MIC (Staphylococcus aureus) of 0.78 µg/mL (≈ 2.17 µM), an MIC (Shigella boydii) of 6.25 µg/mL (≈ 17.4 µM) and an MIC [3] of 25 µg/mL (≈ 69.6 µM). For the same compound, the MIC (Morganella morganii) was 25 µg/mL (≈ 69.6 µM), the MIC (Shigella flexneri) was over 25 µg/mL and the MIC (Pseudomonas aeruginosa) was over 25 µg/mL. For the same compound, the MIC (Streptococcus pneumoniae) was 0.39 µg/mL (≈ 1.09 µM), the MIC (Salmonella typhimurium) was 25 µg/mL (≈ 69.6 µM) and the MIC (Serratia marcescens) was over 25 µg/mL. For the same compound, the MIC (Citrobacter freundii) was 12.5 µg/mL (≈ 34.8 µM), the MIC (Enterococcus faecalis) was over 25 µg/mL and the MIC (Staphylococcus) was 12.5 µg/mL (≈ 34.8 µM).

`CCn1cc(C(=O)O)c(=O)c2cc(Oc3ccc(C)cc3)c(Oc3ccc(C)cc3)c(Oc3ccc(C)cc3)c21` showed an IC50 (Trypanosoma cruzi [1]) of over 90 µg/mL.

`O=C(O)c1cn(C2CC2)c2c(Sc3ccccc3)c(Sc3ccccc3)c(F)cc2c1=O` gave an IC50 (Trypanosoma cruzi [1]) of 17.8 µg/mL (≈ 38.4 µM).

`CCn1cc(C#N)c(=O)c2cc(F)c(Oc3ccccc3)c(Oc3ccccc3)c21` showed an IC50 (Trypanosoma cruzi [1]) of over 90 µg/mL.

With `C=Cn1cc(C(=O)O)c(=O)c2cc(F)c(OCc3ccccc3)c(OCc3ccccc3)c21` the IC50 (Trypanosoma cruzi [1]) was 6.2 µg/mL (≈ 13.9 µM).

`CCn1cc(C(=O)OC)c(=O)c2cc(F)c(OCc3ccccc3)c(OCc3ccccc3)c21` showed an IC50 (Trypanosoma cruzi [1]) of 3.8 µg/mL (≈ 8.23 µM).

Compound `CCn1cc(C(=O)O)c(=O)c2cc(F)c(Oc3ccccc3)c(Oc3ccccc3)c21` has an IC50 (Trypanosoma cruzi [1]) of over 90 µg/mL.

Work on `CCn1cc(C(=O)O)c(=O)c2cc(F)c(Sc3ccc(Cl)cc3)c(Sc3ccc(Cl)cc3)c21` yielded an IC50 (Trypanosoma cruzi [1]) of 16.3 µg/mL (≈ 31.3 µM).

For `O=C(Cn1ccnc1[N+](=O)[O-])NCc1ccccc1` [BENZNIDAZOLE], the IC50 (Trypanosoma cruzi [1]) was 0.83 µg/mL (≈ 3.19 µM).

`O=C(O)c1cn(C2CC2)c2cc(N3CCNCC3)c(F)cc2c1=O` [CIPROFLOXACIN] gave an Activity (Trypanosoma cruzi [4]) of 26%.

`CCn1cc(C(=O)O)c(=O)c2cc(F)c(N3CCNC(C)C3)c(F)c21` (stereo not given) [LOMEFLOXACIN] gave an MIC (Shigella sonnei) of 0.098 µg/mL (≈ 0.279 µM), an MIC [2] of 0.78 µg/mL (≈ 2.22 µM) and an MIC (Proteus mirabilis) of 0.39 µg/mL (≈ 1.11 µM). It also gave an MIC (Klebsiella pneumoniae) of 0.098 µg/mL (≈ 0.279 µM), an MIC (Escherichia coli) of 0.098 µg/mL (≈ 0.279 µM) and an MIC (Proteus vulgaris) of 0.78 µg/mL (≈ 2.22 µM). The MIC (Aeromonas hydrophila) was 6.25 µg/mL (≈ 17.8 µM), the MIC (Streptococcus) was 6.25 µg/mL (≈ 17.8 µM) and the MIC (Staphylococcus aureus) was 0.78 µg/mL (≈ 2.22 µM). For the same compound, the MIC (Shigella boydii) was 0.098 µg/mL (≈ 0.279 µM), the MIC [3] was 0.098 µg/mL (≈ 0.279 µM) and the MIC (Morganella morganii) was 0.195 µg/mL (≈ 0.555 µM). It also gave an MIC (Shigella flexneri) of 0.78 µg/mL (≈ 2.22 µM), an MIC (Pseudomonas aeruginosa) of 3.13 µg/mL (≈ 8.91 µM) and an MIC (Streptococcus pneumoniae) of 0.195 µg/mL (≈ 0.555 µM). The MIC (Salmonella typhimurium) was 0.195 µg/mL (≈ 0.555 µM), the MIC (Serratia marcescens) was 0.195 µg/mL (≈ 0.555 µM) and the MIC (Citrobacter freundii) was 0.098 µg/mL (≈ 0.279 µM). It also gave an MIC (Enterococcus faecalis) of 25 µg/mL (≈ 71.2 µM) and an MIC (Staphylococcus) of 3.13 µg/mL (≈ 8.91 µM).

With `CCn1cc(C(=O)O)c(=O)c2ccc(C)nc21` [NALIDIXIC ACID] the Activity (Trypanosoma cruzi [5]) was 60%.
